Experimental data published in ChEMBL document CHEMBL3046210, “6-Imino-2-thioxo-pyrimidinones as a new class of dipeptidyl peptidase IV inhibitors” (Med Chem Res, 2011).

Assays:
THP-1 = assay: Cytotoxicity against Homo sapiens (human) THP1 cells up to 0.1 mM after 24 hr by MTS assay; format: cell-based; settings: thp-1, 24 h
HepG2 = assay: Cytotoxicity against Homo sapiens (human) HepG2 cells up to 0.1 mM after 24 hr by MTS assay; format: cell-based; settings: hepg2, 24 h

Row | SMILES | Activity (THP-1) | Activity (HepG2)
1 | CCCCC1(Cc2cc(OC)c(OC)c(OC)c2)C(=N)NC(=S)NC1=O (stereo unspecified) | Non-toxic | Non-toxic
2 | COc1cc(CC2(C(C)C)C(=N)NC(=S)NC2=O)cc(OC)c1OC (stereo unspecified) | Non-toxic | Non-toxic
3 | COc1cc(CC2(C)C(=N)NC(=S)NC2=O)cc(OC)c1OC (stereo unspecified) | Non-toxic | Non-toxic
4 | COc1cc(CC2(Cc3cc(OC)c(OC)c(OC)c3)C(=N)NC(=S)NC2=O)cc(OC)c1OC | Non-toxic | Non-toxic
5 | C=CCC1(Cc2cc(OC)c(OC)c(OC)c2)C(=N)NC(=S)NC1=O (stereo unspecified) | Non-toxic | Non-toxic
6 | CCCC1(Cc2cc(OC)c(OC)c(OC)c2)C(=N)NC(=S)NC1=O (stereo unspecified) | Non-toxic | Non-toxic
7 | COc1cc(CC2C(=N)NC(=S)NC2=O)cc(OC)c1OC (stereo unspecified) | Non-toxic | Non-toxic
8 | CCC1(Cc2cc(OC)c(OC)c(OC)c2)C(=N)NC(=S)NC1=O (stereo unspecified) | Non-toxic | Non-toxic
